# Test results published in US10870832B2, “Use of small molecules to enhance MAFA expression in pancreatic endocrine cells” (Janssen Biotech, Inc., priority 2014, dated 2020).
# How the values were obtained:
# CaMKIIIβ(h) = experiment: Kinase profiling of R428; assay type: biochemical, human; conditions: 100 μM ATP, lower number = more robust inhibition
# Procedure: The efficiency of the AXL inhibitor R428 for targeting different kinases was assessed by Kinase Profiling Services using 100 μM ATP concentration (EMD Millipore). R428 was tested at 1 and 10 μM. Table IV lists the kinases profiled along with the efficiency in targeting the kinases with a lower number indicating a more robust inhibition of a particular kinase.
# MAFA expression = experiment: Stage 7 treatment, real-time PCR of MAFA (Example 7); assay type: cell-based, human; conditions: Stage 7, day 14, 2 μM R428 or 2-5 μM inhibitor substituted for R428, H1-derived cells, mRNA
# Procedure: (§1) Cells of the human embryonic stem cell line H1 (WA01) were seeded as single cells at 1×10^5 cells/cm^2 on MATRIGEL™ (1:30 dilution) coated dishes in E8 media. At about 70 to 80% confluency, the cultures were washed in 1× incomplete DPBS followed by incubation with 1× TrypLE™ Express Enzyme for 3 to 5 minutes at 37° C. The released cells were rinsed with E8 and spun at 1000 rpm for 5 minutes. The resulting cell pellet was resuspended in E8 supplemented with 10 μM Y-27632 and the single cell suspension was seeded at approximately 1.3 to 1.5×10^5 cells/cm^2. The cultures were fed every day with E8 medium and differentiation, according to the following protocol, was initiated 48 hrs. following seeding resulting in an about 90% starting confluency.
# Stage 6 cells were cultured for fourteen days in BLAR medium supplemented with a 1:100 dilution of ITS-X; 20 mM glucose (final); 1.5 g/L sodium bicarbonate; 2% FAF-BSA; 10 μg/ml of heparin, 10 μM ZnSO4, 1 μM T3 as 3,3′, 5-triiodo-L-thyronine sodium salt, 10 μM ALK5 inhibitor II, 1 mM N-acetyl cysteine. Some cultures also included one of 2 μM R428, 2-5 μM RSK inhibitor II (2-(3,5-Difluoro-4-hydroxy-anilino)-8-isopentyl-5,7-dimethyl-7H-pteridin-6-one) (EMD Millipore; Catalog No, 559286-5MG), 2-5 μM aurora kinase inhibitor II (EMD Millipore, or a combination of 2-5 μM RSK inhibitor II and 2-5 μM aurora kinase II inhibitor.
# At Stage 7, day 14, mRNA was collected and compared to undifferentiated human stem cells.
# UCN3 expression = experiment: Stage 7 treatment, real-time PCR of UCN3 (Example 6); assay type: cell-based, human; conditions: Stage 7, day 7, 2 μM in Stage 7 medium, H1-derived cells, mRNA
# Procedure: as §1, with “TrypLET™” for “TrypLE™”
# Stage 6 cells were cultured for seven days in BLAR medium supplemented with a 1:100 dilution of ITS-X; 20 mM glucose (final); 1.5 g/L sodium bicarbonate; 2% FAF-BSA; 10 μg/ml of heparin, 10 μM ZnSO4, 1 μM T3 as 3,3′, 5-triiodo-L-thyronine sodium salt, 10 μM ALK5 inhibitor II, 1 mM N-acetyl cysteine. […]
# At Stage 7, day 7, mRNA was collected and expression of MAFA, UCN3, PDX1, NKX6.1, insulin and G6PC2 evaluated as compared to undifferentiated human stem cells. […]
structure (smiles),measurement,setting,value
"Nc1nc(Nc2ccc3c(c2)CC[C@@H](N2CCCC2)CC3)nn1-c1cc2c(nn1)-c1ccccc1CCC2 [R428, 1H-1,2,4-Triazole-3,5-diamine, 1-(6,7-dihydro-5H-benzo[6,7]cyclohepta[1,2-c]pyridazin-3-yl) N3-[(7S)-6,7,8,9-tetrahydro-7-(1-pyrrolidinyl)-5H-benzocyclohepten-2-yl]-]",efficiency in targeting CaMKIIIβ(h),CaMKIIIβ(h); R428 @ 1 μM,76
same,efficiency in targeting CaMKIIIβ(h),CaMKIIIβ(h); R428 @ 10 μM,5
same,MAFA expression,MAFA expression,removal of R428 resulted in a significant decrease in MAFA expression
same,UCN3 expression,UCN3 expression,reduces other beta cell maturation markers
